The data set can be described thus: photoluminescence quantum yield (fraction); solvent given as SMILES.

“And” between values parts separate entries of the source, which are not always exact repeats. Identical values can stand only once.

Consider `F[B-]1(F)n2c(-c3cccs3)cc(-c3cccs3)c2N=C2C(c3cccs3)=CC(c3cccs3)=[N+]21`, for which the photoluminescence quantum yield runs as follows: (in C1CCOC1) 0.12; (in CC#N) 0.11; (in CS(C)=O) 0.13; (in Cc1ccccc1) 0.1; (in ClCCl) 0.12 and 0.11.

As for `O=[N+]([O-])c1ccc(-c2cn3ccc[n+]3[n-]2)cc1`, the photoluminescence quantum yield (in ClCCl) was determined as 0.16.

Take `C=CCNc1ccc2ccc3oc4cc(=O)ccc-4nc3c2c1`: the photoluminescence quantum yield turned out to be 0.03 (in CC#N), 0.04 (in CCO), 0.06 (in ClCCl) and 0.007 (in O).

For `Oc1ccccc1C1=NC2c3cccc4cccc(c34)C2N1c1ccccc1` (centres undefined), for the setting “in Cc1ccccc1”, the photoluminescence quantum yield worked out at 0.009.

`Cc1cc2nc3c(=O)n(C)c(=O)nc-3n(C)c2cc1C`: for the setting “in CC#N”, the photoluminescence quantum yield is 0.17 and 0.47.

Consider `CCCCCCCCC1(CCCCCCCC)c2ccccc2-c2ccc(N(c3ccc(-n4c5ccccc5c5ccccc54)cc3)c3ccc4c(c3)C(CCCCCCCC)(CCCCCCCC)c3ccccc3-4)cc21`, for which the photoluminescence quantum yield runs as follows: (in C1CCOC1) 0.24; (in CC#N) 0.31; (in CC(C)=O) 0.31; (in CCCCCC) 0.27; (in CCCCOCCCC) 0.25; (in CCN(CC)CC) 0.27. Besides, the photoluminescence quantum yield reads like this: (in CCOC(C)=O) 0.3; (in CCOCC) 0.37; (in CN(C)C=O) 0.32; (in Cc1ccccc1) 0.36; (in ClCCl) 0.3.

For `N#C/C(=C\c1ccc(C#N)cc1)c1nc(-c2ccccc2)cs1`, the photoluminescence quantum yield (in CC#N) came to 0.18; the photoluminescence quantum yield (in CCO) turned out to be 0.18; the photoluminescence quantum yield (in CN(C)C=O) turned out to be 0.272; the photoluminescence quantum yield (in Cc1ccccc1) was determined as 0.098; the photoluminescence quantum yield (in ClCCl) came out at 0.131.

For `CCc1c(C)[nH]c(C2=[N+]3C(=C(C)c4c(C)c(CC)c(C)n4[B-]3(F)F)c3ccccc32)c1C`, the photoluminescence quantum yield (in C1CCOC1) stood at 0.27; the photoluminescence quantum yield (in CC#N) stood at 0.21; the photoluminescence quantum yield (in CCCCCC) stood at 0.93; the photoluminescence quantum yield (in CO) amounted to 0.21; the photoluminescence quantum yield (in Cc1ccccc1) came to 0.71; the photoluminescence quantum yield (in ClCCl) is 0.72.

`c1ccc(-c2nnc(-c3cc(-c4nnc(-c5ccccc5)o4)c(-n4c5ccccc5c5ccccc54)cc3-n3c4ccccc4c4ccccc43)o2)cc1`: the photoluminescence quantum yield by setting is: (in Cc1ccccc1) 0.101; (in O=P(c1ccccc1)(c1ccccc1)c1ccccc1Oc1ccccc1P(=O)(c1ccccc1)c1ccccc1) 0.581.

The compound `C(#Cc1ccc(-n2c3ccccc3c3ccccc32)cc1)c1ccccc1` yielded a photoluminescence quantum yield (in ClCCl) of 0.72.

For the compound `COC(=O)c1ccc(C(=O)NC(C)(C)C)c2c1ccc1c3ccccc3c3ccccc3c12`, under “in ClCCl”, the photoluminescence quantum yield worked out at 0.08.

For the compound `Fc1ccc(-c2cc3ccc4cc(-c5ccc(F)cc5)cc5ccc(c2)c3c45)cc1`, the photoluminescence quantum yield (in C1CCCCC1) turned out to be 0.04; the photoluminescence quantum yield (in C1CCOC1) stood at 0.07; the photoluminescence quantum yield (in CC#N) stood at 0.08; the photoluminescence quantum yield (in CCCCCC) is 0.02; the photoluminescence quantum yield (in CCO) stood at 0.05; the photoluminescence quantum yield (in CN(C)C=O) came out at 0.09. The photoluminescence quantum yield reads like this: (in CO) 0.05; (in Cc1ccccc1) 0.07; (in ClC(Cl)Cl) 0.04; (in ClCCl) 0.05.

With `O=C(O)C1=C/C(=C/C=[N+]2/c3cc(O)c(C[C@@H]4O[C@H](CO)[C@@H](O)C(O)[C@H]4O)cc3C[C@H]2C(=O)O)C[C@@H](C(=O)O)N1` (some centres undefined), the photoluminescence quantum yield came to 0.0013 (in CO), 0.0007 (in O), 0.0046 (in OCCO) and 0.0011 (in [2H]O[2H]).

Where the note is “in C1CCOC1”, `C1=C(c2ccccc2)C(c2ccccc2)=CC1c1ccccc1` showed a photoluminescence quantum yield of 0.0137.

For `CCCCCCN1C(=O)c2cccc3c(-c4ccc(C)s4)ccc(c23)C1=O`, the photoluminescence quantum yield (in ClC(Cl)Cl) was determined as 0.78.

Under “in C1COCCO1”, `CCC1=C(C2=C(C3=C(CC)S(=O)(=O)c4cc(-c5ccc(CO)cc5)ccc43)C(F)(F)C(F)(F)C2(F)F)c2ccc(-c3ccc(CO)cc3)cc2S1(=O)=O` had a photoluminescence quantum yield of 0.

Consider `COc1ccc2c(c1)CCc1c(-c3ccccc3)c3n(c1-2)[B-](F)(F)[N+]1=c2ccc4ccccc4c2=C(c2ccccc2)C1=N3`, for which the photoluminescence quantum yield (in ClC(Cl)Cl) worked out at 0.11.

Consider `CCN(CC)c1ccc(-c2ccc(-c3nc(N4CCOCC4)c4ccccc4n3)s2)cc1`, for which the photoluminescence quantum yield was found to be 0.23 (in CC#N) and 0.67 (in Cc1ccccc1).

Compound `C[N+]1=c2ccc3c(c2C(C)(C)CC1)Oc1cc2c(cc1C=3c1ccccc1C(=O)O)C(c1ccccc1C(=O)O)=c1ccc3c(c1O2)C(C)(C)CC[N+]=3C` registered a photoluminescence quantum yield (in ClC(Cl)Cl) of 0.5.

As to `COc1ccc(/C=C/C2=CC(/C=C/c3ccc(OC)c4ccccc34)=[O+][B-](F)(F)O2)c2ccccc12`, the photoluminescence quantum yield runs as follows: (in CC#N) 0.12; (in CC(C)=O) 0.21; (in CCOC(C)=O) 0.31; (in CCOCC) 0.29; (in ClC(Cl)(Cl)Cl) 0.23; (in ClCCl) 0.39.

Under “in ClC(Cl)Cl”, `CC(C)C1=c2c(c3[nH]cc(C(C)C)c3c3ccccc23)=[N+]2C1=Cc1c(C(C)C)c3c4ccccc4c4c(C(C)C)c[nH]c4c3n1[B-]2(F)F` came in with a photoluminescence quantum yield of 0.63.

With `c1ccc2c(P(c3c4ccccc4cc4ccccc34)c3c4ccccc4cc4ccccc34)c3ccccc3cc2c1`, under “in C1CCOC1”, the photoluminescence quantum yield amounted to 0.

As to `c1ccc(N2N=C(c3cccc4ccccc34)CC2c2ccc3ccc4cccc5ccc2c3c45)cc1` (centres undefined), for the setting “in ClCCl”, the photoluminescence quantum yield was determined as 0.58.

Regarding `CC(=O)Nc1ccc(/C=C2\OC(=O)c3cc(N)ccc32)cc1`, the photoluminescence quantum yield reads like this: (in CC#N) 0.015; (in CC(C)=O) 0.02; (in CC(C)CO) 0.032; (in CC(C)O) 0.032; (in CCCO) 0.03; (in CCO) 0.028. Further, the photoluminescence quantum yield runs as follows: (in CCOC(C)=O) 0.023; (in CCOCC) 0.04; (in CO) 0.02.

Regarding `O=P1(c2ccccc2)C(c2cc(C(F)(F)F)cc(C(F)(F)F)c2)=Cc2c3ccc4cccc5ccc(c6cc(-c7ccccc7)n1c26)c3c45` (centres undefined), the photoluminescence quantum yield by setting is: (in C1CCCCC1) 0.54; (in C1CCOC1) 0.61; (in C1COCCO1) 0.62; (in CC#N) 0.63; (in CC(C)=O) 0.64; (in CO) 0.65. The photoluminescence quantum yield was determined as 0.66 (in Cc1ccccc1), 0.6 (in ClC(Cl)Cl) and 0.61 (in ClCCl).

The compound `COc1ccc(O)c(C=O)c1` yielded a photoluminescence quantum yield (in CO) of 0.03.

With `CCN(CC)c1ccc(-c2nc3c(nc2-c2ccc(B(c4c(C)cc(C)cc4C)c4c(C)cc(C)cc4C)cc2)c2ccccc2n3C)cc1`, where the note is “in C1CCOC1”, the photoluminescence quantum yield amounted to 0.21.

For the compound `CC1=CC2=Nc3nc(C)[n+](C)cc3CN2C=C1`, the photoluminescence quantum yield by setting is: (in CC#N) 0.85; (in CCO) 0.86; (in O) 0.79.

As for `CN(C)c1ccc(-c2nc(-c3ccc(-n4c5ccccc5c5ccccc54)cc3)cc(-c3ccc(-n4c5ccccc5c5ccccc54)cc3)n2)cc1`, the photoluminescence quantum yield was 0.035 (in C1CCOC1), 0.011 (in CN(C)C=O), 0.07 (in Cc1ccccc1) and 0.07 (in ClC(Cl)Cl).

For the compound `CC(C)(C)C1CCC(=CS/C=C/c2ccc(/C=C/SC=C3CCC(C(C)(C)C)CC3)cc2)CC1` (centres undefined), the photoluminescence quantum yield (in ClCCl) is 0.031.

`O=c1oc2ccccc2c2c1c(=O)oc1ccc3ccc(O)cc3c12`: the photoluminescence quantum yield runs as follows: (in CS(C)=O) 0.02; (in ClCCl) 0.22.

On to `CC(C)(C)c1ccc(-c2cc3c(-c4ccc(C(C)(C)C)cc4)c4cccc5c(-c6ccc(C(C)(C)C)cc6)cc6c(-c7ccc(C(C)(C)C)cc7)c7cccc2c7c3c6c54)cc1`, for which the photoluminescence quantum yield reads like this: (in C1CCCCC1) 0.23; (in CC#N) 0.2; (in CO) 0.21; (in Cc1ccccc1) 0.41; (in ClCCl) 0.27.

Consider `COC(=O)c1cc(=O)n(C)c2cc(-c3ccc4c(c3)OCCO4)sc12`, for which the photoluminescence quantum yield by setting is: (in CC#N) 0.68; (in ClCCl) 0.83.

Compound `N#CC1=CC=CC(C#N)=P1(c1ccccc1)c1ccccc1` displayed a photoluminescence quantum yield (in ClC(Cl)Cl) of 0.92.

Turning to `c1ccc(-c2cc(-c3ccccc3)[o+]c(-c3ccccc3)c2)cc1`, the photoluminescence quantum yield is, setting by setting: (in CC#N) 0.4; (in ClCCCl) 0.28.

Consider `COc1ccc(C2=[N+]3C(=Nc4c(C)cc(-c5ccc(OC)cc5)n4[B-]3(F)F)C(C)=C2)cc1`, for which, where the note is “in CS(C)=O”, the photoluminescence quantum yield was determined as 0.44.

Under “in Cc1ccccc1”, `CC(C)(C)c1ccc(-c2nc3ccccc3nc2-c2cc(-c3nc4ccccc4nc3-c3ccc(C(C)(C)C)cc3)cc(-n3c4ccccc4c4ccccc43)c2)cc1` displayed a photoluminescence quantum yield of 0.35.

Under “in CC#N”, `c1cc2oc3cccc4oc5cccc6oc(c1)c2[c+](c34)c65` returned a photoluminescence quantum yield of 0.11.

In the case of `F[B-]1(F)Oc2ccccc2-c2nc(-c3ccccc3)c3ccccc3[n+]21`, the photoluminescence quantum yield (in Cc1ccccc1) is 0.013.

In turn, `C(#Cc1ccc2ccc3cccc4ccc1c2c34)c1ccccc1` returned a photoluminescence quantum yield (in Cc1ccccc1) of 0.61.

For the compound `CC(C)[Si](C#Cc1cc2c3c(c1)c(=C1c4ccccc4Sc4ccccc41)c1cc(C#C[Si](C(C)C)(C(C)C)C(C)C)cc4c1N3c1c(cc(C#C[Si](C(C)C)(C(C)C)C(C)C)cc1c4=C1c3ccccc3Sc3ccccc31)c2=C1c2ccccc2Sc2ccccc21)(C(C)C)C(C)C`, the photoluminescence quantum yield (in ClCCl) came out at 0.46.

For the origin of these results see the Deep4Chem optical property database.
